Experimental data as given in patent US11591334B2, “Substituted pyrrolizines for the treatment of hepatitis B” (SHANGHAI LONGWOOD BIOPHARMACEUTICALS CO., LTD., priority 2017, dated 2023).
Like-named read-outs stand apart in the source and are kept apart here.

Key:
C150 protein = target: T1, C150 protein (Hepatitis B virus genotype D subtype adw, UniProt P03147, C107A/C48A/C61A/R150C); experiment: In vitro anti-HBV nucleocapsid assembly activity test (Experiment 1, protein experiment); assay type: biochemical
T1 construct: purchased WuXi Apptec Co., Ltd
Description: Experiment 1: In Vitro Anti-HBV Nucleocapsid Assembly Activity Test
Main Reagents and Raw Materials:
C150 protein was expressed and purified by WuXi Apptec Co., Ltd.
BoDIPY® FL was purchased from Thermo Fisher Scientific.
Protein Fluorescent Label:
150 μL of 2% w/v skimmed milk was added into each well of 96-well plate, and incubated at room temperature for 2 hours. The skimmed milk was aspirated. The plate was washed with deionized water and dried, and stored at room temperature. C150 protein (3 mg per tube) was desalted with 5 ml Hitrap desalting column. The desalted C150 protein of each tube was added with 50 mM BoDIPY® FL Fluorescent Dye (20 μl), and incubated under 4° C. overnight in the dark after well mixed. Sephadex G-25 gel was used for filtration to remove fluorescent dyes that were not bounded onto C150. The C150 fluorescent labeling efficiency was calculated according to the following equation: [BoDIPY®FL]=A504/78,000 M^−1; [C150Bo]=(A280−[BoDIPY®FL]×1300 M^−1)/60,900 M^−1; Fluorescent Labeling Efficiency=[BoDIPY®FL]/[C150Bo];
The mother liquor of compound was diluted with DMSO to 6 mM, then diluted to 600 μM with 50 mM HEPES, and then further 3-fold diluted with 10 DMSO/50 mM HEPES to 8 concentrations.
C150Bo was diluted to 2 μM with 50 mM HEPES. 37.5 μL of C150Bo and 2.5 μL of compound at each concentration were added into a 96 well plate and well mixed, then incubated at room temperature for 15 minutes. 10 μl of 750 mM NaCl/50 mM HEPES were added into the each reaction well, and the final concentration of NaCl was 150 mM.
Into the control wells in the 0% protein group 10 μL of 50 mM HEPES was added, and the final concentration of NaCl was 0 mM.
Into the control wells in the 100% protein group 10 μL of 5 M/50 mM HEPES was added, and the final concentration of NaCl was 1 M.
The final concentration of DMSO was 0.5%, the maximum final concentration of the compound was 30 μM, and final concentration of C150Bo was 1.5 μM. The mixture was incubated at room temperature for 1 hour. Fluorescence signal was measured (excitation light was 485 nm; emission light was 535 nm).
Data Analysis % protein assembly=[1−(Sample fluorescence value−1 M NaCl fluorescence value)/(0 M NaCl fluorescence value−1 M NaCl fluorescence value)]×100.
IC50 value was calculated by prism software, and the equation was as follows: Y=Bottom+(Top−Bottom)/(1+10^((LogIC50−X)HillSlope));

[1] = Determination of cytotoxicity (Experiment 3, resazurin assay); assay type: cell-based; details: human
Description: Compound dilution. All the compounds for in vitro anti-HBV activity assay and cytotoxicity assay were 3-fold diluted into 8 concentrations. The final concentration of the tested compound was 30 μM, the final starting concentration of reference compound GLS4 was 1 μM, and the final concentration of DMSO was 0.5%. Experiment 3: Determination of Cytotoxicity The cytotoxicity of the test compound was tested using HepG2 cells. The cells were incubated for 4 days in the presence of the test compound. Cell activity was assessed using the resazurin assay.

HBV = experiment: Determination of anti-HBV activity in HepG2.2.15 cell (Experiment 2, HBV DNA in supernatant by qPCR); assay type: cell-based; details: Hepatitis B virus
Description: Experiment 2: Determination of Anti-HBV Activity in HepG2.2.15 Cell
Compound dilution. All the compounds for in vitro anti-HBV activity assay and cytotoxicity assay were 3-fold diluted into 8 concentrations. The final concentration of the tested compound was 30 μM, the final starting concentration of reference compound GLS4 was 1 μM, and the final concentration of DMSO was 0.5%.
HepG2.2.15 cell (4×10^4 cell/well) was inoculated into 96 well plate, and cultured overnight in 37° C., 5% CO2. On the second day, fresh culture medium containing different concentrations of the compound was added into the culture wells. On the fifth day, the old culture solution in the culture well was aspirated and fresh culture medium containing different concentrations of the compound was added.
On the eighth day, the supernatant in the culture well was collected for extraction of HBV DNA, and the content of DNA in the supernatant of HepG2.2.15 HBV was detected by qPCR. After the supernatant was collected, the medium and Cell-titer Glo reagent were added into the culture well, and the chemiluminescence value of each well was measured by microplate reader.
The activity calculation formula was as follows: Y=Bottom+(Top−Bottom)/(1+10^((LogIC50−X)*Hillslope));

[2] = HepG2 cells, incubated for 4 days, resazurin assay, read-out: Experiment 3 Cytotoxicity CC50
[3] = HepG2.2.15 cells, HBV DNA in supernatant on the eighth day, qPCR, read-out: Experiment 2 Cell experiment EC50
[4] = fluorescently labeled C150 (C150Bo) 1.5 μM, 150 mM NaCl, 1 hour at room temperature, read-out: Experiment 1 Protein experiment IC50
[5] = HepG2.2.15, read-out: Experiment 2 Cell experiment EC50 (nM)

T1 sequence (P03147 1-150 C48A/C61A/C107A/R150C): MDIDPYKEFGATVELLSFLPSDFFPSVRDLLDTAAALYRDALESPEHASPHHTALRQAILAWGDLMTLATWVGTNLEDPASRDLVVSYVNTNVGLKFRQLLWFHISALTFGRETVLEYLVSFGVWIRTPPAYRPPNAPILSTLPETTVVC

For `CC(NC(=O)Nc1c(Cl)c(C(=O)Nc2ccnc(Cl)c2)n2c1CCC2)C(F)(F)F` (stereo not drawn) [Compound 100b], the IC50 (C150 protein) was 1000 to 100000 nM, the CC50 at 4 days [1, 2] was over 30 µM and the EC50 (HBV; [3]) was 0.1 to 100 nM.

Molecule `CC(NS(=O)(=O)c1c(Cl)c(C(=O)Nc2cc(F)nc(C#N)c2)n2c1CCCC2)C(F)(F)F` (stereo not drawn) [Compound 40d] has an IC50 (C150 protein; [4]) of 1000 to 100000 nM, a CC50 at 4 days [1, 2] of over 30 µM and an EC50 (HBV; [3]) of 0.1 to 100 nM.

For `C[C@@H](NS(=O)(=O)c1c(Cl)c(C(=O)Nc2ccnc(Cl)c2)n2c1CCCC2)C(F)(F)F` [Compound 40c], the IC50 (C150 protein) was 1000 to 100000 nM, the CC50 at 4 days [1, 2] was over 30 µM and the EC50 (HBV; [3]) was 0.1 to 100 nM.

`Cc1c(S(=O)(=O)NC2C3CCC2CC(O)(c2cc(-c4ccccc4)on2)C3)c2n(c1C(=O)Nc1cc(F)nc(C#N)c1)CCC=C2` (stereo not drawn) [Compound 30t] gave an IC50 (C150 protein; [4]) of 1000 to 100000 nM, a CC50 at 4 days [1, 2] of over 30 µM and an EC50 (HBV; [3]) of 100 to 1000 nM.

In the case of `Cc1c(S(=O)(=O)NC2C3CCC2CC(O)(CO)C3)c2n(c1C(=O)Nc1ccc(F)c(F)c1)CCC=C2` (stereo not drawn) [Compound 30r], the IC50 (C150 protein; [4]) is reported as 1000 to 100000 nM, the CC50 at 4 days [1, 2] is reported as over 30 µM and the EC50 (HBV; [3]) is reported as 0.1 to 100 nM.

`C[C@@H](NS(=O)(=O)c1c2[nH]ccc2c(C(=O)Nc2ccc(F)c(F)c2)n1C)C(F)(F)F` [Compound 80a] gave an IC50 (C150 protein; [4]) of 1000 to 100000 nM, a CC50 at 4 days [1, 2] of over 30 µM and an EC50 (HBV; [3]) of 100 to 1000 nM.

In the case of `CC(NS(=O)(=O)c1c(Cl)c(C(=O)Nc2cc(F)c(F)c(F)c2)n2c1CCC2)C(F)(F)F` (stereo not drawn) [Compound 20b], the IC50 (C150 protein) is reported as under 1000 nM, the CC50 at 4 days [1, 2] is reported as over 30 µM and the EC50 (HBV; [3]) is reported as 0.1 to 100 nM.

`O=C(Nc1ccc(F)c(F)c1)c1c(Cl)c(S(=O)(=O)N2C3CCC2CC(O)(c2cc(-c4ccccc4)on2)C3)c2n1CC=C2` (stereo not drawn) [Compound 10ww] showed an IC50 (C150 protein) of 1000 to 100000 nM, a CC50 at 4 days [1] of over 30 µM and an EC50 (HBV; [5]) of 0.1 to 100 nM.

In the case of `N#Cc1cc(NC(=O)c2c(Cl)c(S(=O)(=O)NC3C4CCC3CC(O)(c3cc(-c5ccccc5)on3)C4)c3n2CCC=C3)cc(F)n1` (stereo not drawn) [Compound 30s], the IC50 (C150 protein; [4]) is reported as 1000 to 100000 nM, the CC50 at 4 days [1, 2] is reported as over 30 µM and the EC50 (HBV; [3]) is reported as 100 to 1000 nM.

`Cc1c(S(=O)(=O)N2C3CCC2CC(O)(CO)C3)c2n(c1C(=O)Nc1cc(F)nc(C#N)c1)CC=C2` (stereo not drawn) [Compound 10vv] showed an IC50 (C150 protein) of 1000 to 100000 nM, a CC50 at 4 days [1] of over 30 µM and an EC50 (HBV; [5]) of 0.1 to 100 nM.

`C[C@@H](NS(=O)(=O)c1c(Cl)c(C(=O)Nc2ccc(F)c(F)c2)n2c1C=CCCC2)C(F)(F)F` [Compound 50a] showed an IC50 (C150 protein; [4]) of 1000 to 100000 nM, a CC50 at 4 days [1, 2] of over 30 µM and an EC50 (HBV; [3]) of 0.1 to 100 nM.

`Cc1c(NS(=O)(=O)NC2(C)COC2)c2n(c1C(=O)Nc1cc(F)nc(C#N)c1)CCC2` [Compound 90h] showed an IC50 (C150 protein; [4]) of 1000 to 100000 nM, a CC50 at 4 days [1, 2] of over 30 µM and an EC50 (HBV; [3]) of 0.1 to 100 nM.

For `C[C@@H](NS(=O)(=O)c1c(Cl)c(C(=O)Nc2ccc(F)c(F)c2)n2c1C=CCC2)C(F)(F)F` [Compound 30a], the IC50 (C150 protein; [4]) was under 1000 nM, the CC50 at 4 days [1, 2] was over 30 µM and the EC50 (HBV; [3]) was 0.1 to 100 nM.

`C[C@@H](NS(=O)(=O)c1c(Cl)c(C(=O)Nc2ccnc(Cl)c2)n2c1C=CCC2)C(F)(F)F` [Compound 30c] gave an IC50 (C150 protein) of 1000 to 100000 nM, a CC50 at 4 days [1, 2] of over 30 µM and an EC50 (HBV; [3]) of 0.1 to 100 nM.

In the case of `CC(CO)NS(=O)(=O)c1c(Cl)c(C(=O)Nc2ccc(F)c(F)c2)n2c1CCC2` (stereo not drawn) [Compound 20cc], the IC50 (C150 protein; [4]) is reported as 1000 to 100000 nM, the CC50 at 4 days [1, 2] is reported as over 30 µM and the EC50 (HBV; [3]) is reported as 100 to 1000 nM.

`CC(NS(=O)(=O)c1c2ncccc2c(C(=O)Nc2ccc(F)c(F)c2)n1C)C(F)(F)F` (stereo not drawn) [Compound 70a] gave an IC50 (C150 protein; [4]) of over 100000 nM, a CC50 at 4 days [1, 2] of over 30 µM and an EC50 (HBV; [3]) of 0.1 to 100 nM.

With `CC(CO)NS(=O)(=O)Nc1c(Cl)c(C(=O)Nc2cc(F)nc(C#N)c2)n2c1CCC2` (stereo not drawn) [Compound 90f] the IC50 (C150 protein; [4]) was 1000 to 100000 nM, the CC50 at 4 days [1, 2] was over 30 µM and the EC50 (HBV; [3]) was 0.1 to 100 nM.

`Cc1c(NS(=O)(=O)NC2(C)COC2)c2n(c1C(=O)Nc1ccc(F)c(F)c1)CCC2` [Compound 90g] showed an IC50 (C150 protein; [4]) of 1000 to 100000 nM, a CC50 at 4 days [1, 2] of over 30 µM and an EC50 (HBV; [3]) of 0.1 to 100 nM.

Work on `CC(NS(=O)(=O)c1c(Cl)c(C(=O)Nc2ccnc(Cl)c2)n2c1C=CC2)C(F)(F)F` (stereo not drawn) [Compound 10e] yielded an IC50 (C150 protein; [4]) of 1000 to 100000 nM, a CC50 at 4 days [1, 2] of over 30 µM and an EC50 (HBV; [3]) of 100 to 1000 nM.
